Measured values: patent publication US5583000A, “Protease-binding compounds and methods of use” (priority 1993, dated 1996)
In brackets after ≈: the same amount, converted by molar mass. Several values for one entry are separate records, joined by “and”; a condition that tells them apart may be missing. Equal values may be shown once. Read-outs that look alike come from different tables or passages of the source. Square brackets hold non-standard residues; d marks the D form. Ends that are not written are not given here. Peptide text beside a SMILES is read from it. * marks the point of attachment. Sta = CC(C)C[C@H](N)[C@@H](O)CC(=O)O; Isovaleryl = CC(C)CC(=O)*

How the values were obtained:
HIV-1 protease [1] = target: T1, HIV-1 protease (Human immunodeficiency virus type 1 group M subtype B, UniProt P03369); test: biochemical
HIV-2 protease = target: T2, HIV-2 protease (Human immunodeficiency virus type 2 subtype A, UniProt P04584); test: biochemical
T2 construct: the coding region of the 99-amino acid protease; made in house; host or cells: Saccharomyces cerevisiae strain AB110, plasmid pHIV2PR115
Protocol: The decapeptide was synthesized by conventional solid-state methods. Reactions were carried out and fractionated by HPLC. Conversion of the decapeptide to the two pentapeptides was quantitated by integration of the peak areas and comparison to product standard curves.
Enzymatic Inhibition. […] Each data point was done in triplicate and initial enzyme rates were fit to the Michaelis-Menten equation using a nonlinear regression program ("Enzfitter" from Biosoft).

HIV-1 protease [2] = target: T1, HIV-1 protease; assay type: cell-based; design: fused to amino acids 5 (Asp) to 179 (Trp) of the pol region; human superoxide dismutase (hSOD, 153 residues) (N); Phe-Arg-Glu are pol residues) (N); additional Pro residue of pol (C); expressed in transfected cells; host or cells: E. coli strain D1210 harboring plasmid pSOD/PR179
HIV = test: HeLa/T4 infectivity assay with replication-defective virions from transfected COS-7 cells; assay type: cell-based; conditions: for colony reduction (summary in words): Table 5 concentrations
in vitro [3] = test: in vitro
in vitro [4] = conditions: african green monkey, cos-7 cells
Protocol: (§1) MTT cell viability assay. This is a quantitative colorimetric assay for mammalian cell survival and proliferation. Cells were seeded in 96 well plates and grown to near 50% confluency. A serial dilution (1 to 500 μM) of each compound was then prepared in culture media and added (250 μL/well) in duplicate. All culture media was adjusted to a final concentration of 1.0% DMSO (volume basis). The cells were allowed to grow for either 4 hours or 24 hours. The culture media were then removed, and the cells were washed with phosphate buffered saline (PBS) before 50 μL of MTT solution (1 mg/mL in PBS) was added. After incubating for 4 hours at 37° C., the reaction was quenched by adding 160 μL of acidified isopropanol and mixing to dissolve purple crystals. The absorbance was determined within 30 minutes at 570 nm on an ELISA plate reader.
(§2) The cytotoxic effect of the inhibitors was determined using the MTT stain viability assay.

p24 = p24 core antigen ELISA of virus from treated COS-7 cells
Protocol: Drug treatment. The compounds were added 48 hours post-transfection, at the peak of virus production, and the incubation was restricted to a 4-hour period. […] Culture media were adjusted to the desired concentration of these compounds just prior to the addition of the media to cells. To avoid precipitation, the compounds were aliquoted first to a tube in sufficient DMSO to yield a 1.0% final concentration, and subsequently the culture medium was added quickly and vortexed. The culture medium was collected after 4 hours of incubation of the cells with each of the compounds. This culture supernatant is the source of virus for measurement of infectivity as well as levels of p24 and other capsid proteins.
p24 Core antigen ELISA assay. An ELISA kit purchased from NEN/Dupont was used to determine the amount of p24 present in culture media or virus preparations. This capture assay uses a monoclonal antibody that preferentially binds p24 while it reacts with larger capsid protein precursors to a very limited extent. The assay was carded out using the manufacturer's indications. Samples were pre-treated with 1% Triton to inactivate the virus.
Virus isolation by ultracentrifugation. The culture medium was filtered through a 0.45 μm syringe filter and was then centrifuged to remove any precipitate. The medium was then spun through a cushion of 20% sucrose in PBS in an SW41 Beckman rotor for 1.5 hours at 35K and 4° C. The pelleted material was collected.
Following incubation of virus-producing cells with various concentrations of the test compounds, the virus particles were isolated by ultracentrifugation. These particles were disrupted using Triton X-100 and the amount of p24 capsid protein was quantitated by ELISA.

HIV-1 PR Q7K = HIV-1 PR Q7K (Human immunodeficiency virus type 1 group M subtype B, UniProt P03369, Q497K); assay type: biochemical; conditions: read-out: kinact (μM) HIV-1; inhibitor concentration resulting in half-maximal inactivation; pH 8.0, 25° C.
HIV-1 PR C95M = HIV-1 PR C95M (Human immunodeficiency virus type 1 group M subtype B, UniProt P03369, C585M); test: Protection experiment, incorporation of radio-labelled UCSF84; assay type: binding
HIV-2 PR = target: T3, HIV-2 PR (Human immunodeficiency virus type 2 subtype A, UniProt P04584); test: biochemical; assay type: biochemical; conditions: for KI (inactivation): read-out: kinact (μM) HIV-2
T3 construct: HIV-2 PR (at a final concentration of 30 μg/mL); made in house

HIV-1 PR [5] = target: T4, HIV-1 PR (Human immunodeficiency virus type 1 group M subtype B, UniProt P03369); conditions: pH 8
[6] = MTT cell viability assay (Tables 5 and 7); conditions: african green monkey, cos-7 cells
Protocol: as §1, §2

HIV protease = HIV protease (Human immunodeficiency virus type 1 group M subtype B, UniProt P04585); conditions: cited from earlier work
HIV-1 PR [7] = target: T4, HIV-1 PR; test: biochemical; assay type: binding; conditions: preincubation 10 μM one hour, then radio-labelled UCSF84 200 μM
[8] = HIV-1 Protease IC50 (μM) 1M NaCl
[9] = Human immunodeficiency virus 1, COS-7, 4 h, read-out: % p24 Relative to Untreated
[10] = HIV-1 Protease IC50 (μM) 1M NaCl, 1M NaCl
[11] = Human immunodeficiency virus 1, COS-7, 4 h, read-out: Reduction of p24 IC50 (μM)
[12] = inhibitor concentration resulting in half-maximal inactivation, pH 8.0, 25° C.
[13] = pH 8, maximum inactivation rate, read-out: Vinact (min^-1 × 10^3) HIV-2 (converted)

T3 sequence (P04584 514-612 limits assumed): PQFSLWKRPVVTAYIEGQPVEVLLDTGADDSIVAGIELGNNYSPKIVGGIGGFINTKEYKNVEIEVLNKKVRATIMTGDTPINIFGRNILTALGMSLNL
T2 sequence (P04584 514-612 limits assumed): as above

| Compound | IC50 (HIV-1 protease [1]; [8]) [µM] | solubility (physchem) [µM] | IC50 (HIV-2 protease; 1M NaCl) [µM] | CC50 at 6 h (in vitro [3]) [µM] | CC50 at 4 h (in vitro [4]) [µM] | IC50 (HIV-1 protease [1]; [10]) [µM] | solubility (Solubility) [µM] | KI (inactivation) (HIV-1 PR Q7K) [µM] | CC50 at 24 h (in vitro [4]) [µM] | also measured |
| --- | --- | --- | --- | --- | --- | --- | --- | --- | --- | --- |
| OC(CCCN1CCC(O)(c2ccc(Cl)cc2)CC1)c1ccc(F)cc1 (centres unmarked) [UCSF2] | 200 | > 250 | – | – | – | – | – | – | – | HIV-1 Protease Therapeutic Index (LD50 /IC50) (HIV-1 protease [1]): 0.5; IC50 (HIV-2 protease): 700 µM; inhibition of protein processing (intermediate bands) (HIV-1 protease [2]): An increase in the band representing an intermediate in the vicinity of the 29-kDa marker |
| OC1(c2ccc(Cl)cc2)CCN(CCCC2(c3ccc(F)cc3)SCCS2)CC1 [UCSF8, (1,2-ethanethioacetal)-4-(4-(p-chlorophenyl)-4-hydroxypiperidinyl]-4'-fluorobutyrophenone] | 15 | > 250 | 100 | 60 | 45 | – | – | – | – | HIV-1 Protease Therapeutic Index (LD50 /IC50) (HIV-1 protease [1]): 4; inhibition of HIV-1 protease compared with other compounds (HIV-1 protease [1]): 50% inhibition is achieved at a much lower inhibitor concentration relative to haloperidol; IC50 (HIV-1 protease [1]; IC50): 73 µM and 32 µM and 15 µM; inhibition at 20 µM (HIV; Human immunodeficiency virus 1, HeLaT4, 20 μM, 4-hour treatment, read-out: Hela/T4 Infection % Colony Reduction): 85%; colony reduction (summary in words) (HIV): significant colony reduction; cytotoxicity at 4 h, 20 µM (in vitro [4]): 55%; activity at 20 µM (p24; [9]): 62% |
| OC1(CCCCc2ccccc2)CCC(O)(c2ccccc2)CC1 (centres unmarked) [UCSF29, 4-(4'-phenylbutyl)-1-phenyl-1,4-cyclohexanediol] | – | – | – | 160 | 180 | 128 | > 250 | – | – | IC50 (HIV-1 protease [1]; 0.2M NaCl, read-out: IC50): 1400 µM; IC50 (HIV-1 protease [1]; 0.5M NaCl, read-out: IC50): 625 µM; IC50 (HIV-1 protease [1]; 1.0M NaCl, read-out: IC50): 128 µM; inhibition of HIV-1 protease compared with other compounds (HIV-1 protease [1]; FIGS. 5-8, three salt concentrations): not unlike that for haloperidol; HIV-1 Protease Therapeutic Index (LD50 /IC50) (HIV-1 protease [1]; LD50/IC50): 1.2; inhibition at 250 µM (HIV; Human immunodeficiency virus 1, HeLaT4, 250 μM, 4-hour treatment, read-out: Hela/T4 Infection % Colony Reduction): 100%; colony reduction (summary in words) (HIV): significant colony reduction; cytotoxicity at 4 h, 250 µM (in vitro [4]): 80%; activity at 250 µM (p24; [9]): 35% |
| C=C(CCC[N+]1([O-])CCC(O)(c2ccc(Cl)cc2)CC1)c1ccc(F)cc1 (centres unmarked) [UCSF42] | 30 | 500 (≈ 195 µg/mL) | 67 | 160 | 300 | – | – | – | – | HIV-1 Protease Therapeutic Index (LD50 /IC50) (HIV-1 protease [1]): 5.3; inhibition of HIV-1 protease compared with other compounds (HIV-1 protease [1]): better inhibitor than haloperidol but not as potent an inhibitor as UCSF8; inhibition at 75 µM (HIV; Human immunodeficiency virus 1, HeLaT4, 75 μM, 4-hour treatment, read-out: Hela/T4 Infection % Colony Reduction): 92%; colony reduction (summary in words) (HIV): significant colony reduction; cytotoxicity at 4 h, 75 µM (in vitro [4]): 0%; activity at 75 µM (p24; [9]): 45% |
| OC1(C#CC2(c3ccccc3)CO2)CCN(Cc2ccccc2)CC1 (centres unmarked) [UCSF70, N-benzyl-4-hydroxy-4-(3,4-epoxy-3-phenyl-1-butyny)piperidine] | – | – | – | 120 | 70 | 750 | > 500 | 407 ± 61.6 | 35 | IC50 (p24; [11]): 25 µM |
| OC(CCCC1(O)CCN(Cc2ccccc2)CC1)c1ccccc1 (centres unmarked) [UCSF77] | – | – | 500 | 500 | – | 2500 | > 500 | – | – | – |
| O=C(c1ccc(N2CCC(O)(c3ccc(Cl)cc3)CC2)cc1)C1CC1 [UCSF81] | – | – | 1000 | > 250 | – | 200 | > 250 | – | – | HIV-1 Protease Therapeutic Index (LD50 /IC50) (HIV-1 protease [1]; LD50/IC50): > 1.25 |
| C=CCCCC1(C(=O)c2ccc(N3CCC(O)(c4ccc(Cl)cc4)CC3)cc2)CC1 [UCSF82] | – | – | 800 | > 250 | – | 100 | < 100 | – | – | – |
| O=C(c1ccc(N2CCC(O)(c3ccc(Cl)cc3)CC2)cc1)C1(CC#CCO)CC1 [UCSF83] | – | – | 78 | > 250 | – | 15 | > 250 | – | – | – |
| OC1(c2ccc(Cl)cc2)CCN(CC#CC2(c3ccccc3)CO2)CC1 (centres unmarked) [UCSF84] | 150 | > 250 | – | 100 to 165 | 120 | – | – | 521 ± 56.6 | 50 | incorporation of radioactivity relative to HIV-1 PR (HIV-1 PR C95M; 200 μM, one hour, 25° C.): approximately 50%; KI (inactivation) (HIV-2 PR; [12]): 283 ± 9.3 µM; kinact (HIV-2 PR; [13]): 0.0146 min⁻¹; reversibility of inhibition after dilution and buffer exchange (HIV-1 PR [5]): irreversible modification of the enzyme; IC50 (p24; read-out: Reduction of p24 IC50, 4 hours incubation, ELISA): 50 µM |
| O=C(C#CCN1CCC(O)(c2ccc(Cl)cc2)CC1)c1ccccc1 [UCSF86, 4-(4'-(4"-chlorophenyl)-4'-hydroxypiperidinyl)-1-phenylbut-2-yn-1-one] | 20 | > 60 | – | 15 to 20 | 15 | – | – | 62.4 ± 3.1 | < 10 | KI (inactivation) (HIV-2 PR; [12]): 131 ± 4.4 µM; kinact (HIV-2 PR; [13]): 0.0076 min⁻¹ |
| O=C(/C=C/C[N+]1([O-])CCC(O)(c2ccc(Cl)cc2)CC1)c1ccc(F)cc1 (centres unmarked) [UCSF115] | 30 | 250 (≈ 97.5 µg/mL) | – | 250 | 250 | – | – | 144 ± 14.8 | 200 | KI (inactivation) (HIV-2 PR; [12]): 116 ± 4.7 µM; kinact (HIV-2 PR; [13]): 0.0052 min⁻¹; IC50 (p24; [11]): 75 µM |
| O=C(C=C(CN1CCC(O)(c2ccc(Cl)cc2)CC1)SCCO)c1ccccc1 [UCSF178, 4-(4'-(4"-chlorophenyl)-4'-hydroxypiperidinyl)-3-(2'-hydroxyethylthio)-1-phenyl-2-buten-1-one] | 140 | 150 (≈ 64.8 µg/mL) | – | > 250 | > 250 | – | – | 232 ± 10.8 | 75 | KI (inactivation) (HIV-2 PR; [12]): 120 ± 9.9 µM; kinact (HIV-2 PR; [13]): 0.0046 min⁻¹ |
| O=C(/C=C/CN1CCC(O)(c2ccc(Cl)cc2)CC1)c1ccc(F)cc1 [UCSF191] | 80 | > 150 | – | 22 | – | – | – | 57.2 ± 7.1 | – | kinact (HIV-2 PR; pH 8, read-out: Vinact (min^-1 × 10^3) HIV-2): 0.0121 min⁻¹; KI (inactivation) (HIV-2 PR; hiv-2 pr, pH 8): 156 ± 2.3 µM |
| O=C(C#CCN1CCC(O)(c2ccc(Cl)cc2)CC1)c1ccc(-c2ccccc2)cc1 [UCSF231, 4-(4'-(4"-chlorophenyl)-4'-hydroxypiperidinyl)-1-p-biphenylbut-2-yn-1-one] | 100 | – | – | 10 | < 5 | – | – | 385 ± 58 | < 5 | HIV-1 Protease Therapeutic Index (LD50 /IC50) (HIV-1 protease [1]): < 0.1 |
| C/C=C/C/C=C/CCC(=O)[C@H]1O[C@H]1C(N)=O [cerulenin, reference compound] | – | – | – | – | 900 | – | – | – | – | inhibition at 100 µM (HIV; Human immunodeficiency virus 1, HeLaT4, 100 μM, 4-hour treatment, read-out: Hela/T4 Infection % Colony Reduction): 77%; cytotoxicity at 4 h, 100 µM [6]: 0%; activity at 100 µM (p24; [9]): 36%; inhibition of protein processing (35-kDa and 38-kDa intermediates) (HIV-1 protease [2]; 500 μM, 15 minutes (FIG. 11b)): no detectable inhibition; inhibition of protein processing (intermediate bands) (HIV-1 protease [2]; 500 μM, 120 minutes (FIG. 11c)): protein processing inhibition |
| CC(C)CC(=O)N[C@H](C(=O)N[C@H](C(=O)N[C@@H](CC(C)C)[C@@H](O)CC(=O)N[C@@H](C)C(=O)N[C@@H](CC(C)C)[C@@H](O)CC(=O)O)C(C)C)C(C)C [pepstatin A] (Isovaleryl-VV[Sta]A[Sta]-OH) | – | – | – | – | – | – | – | – | – | inhibition of protein processing by HIV protease (HIV protease): partially inhibit protein processing |
| Val-Ser-Asn-Ler-.psi.[CH(OH)CH2 ]-Val-Ile-Val (VSNLVIV; numbers in words are those of the source; also: Leu-Val peptide bond replaced by hydroxyethylene isostere ψ[CH(OH)CH2]) [Compound U-85548] | – | – | – | – | – | – | – | – | – | blocking of radioactivity incorporation to HIV-1 PR (HIV-1 PR [7]): approximately 65%; incorporation after preincubation of the enzyme (HIV-1 PR C95M; preincubation 10 μM, then radio-labelled UCSF84): sharply reduced |
